In ChEMBL document CHEMBL1135600, “Novel tricyclic-alpha-alkyloxyphenylpropionic acids: dual PPARalpha/gamma agonists with hypolipidemic and antidiabetic activity” (J Med Chem, 2002):

Key:
[1] = biological target: T1, Peroxisome proliferator-activated receptor alpha (Homo sapiens, UniProt Q07869); experiment: In vitro transactivation using receptor transactivation assay against hPPAR alpha; type: functional
T1 sequence (Q07869 whole entry): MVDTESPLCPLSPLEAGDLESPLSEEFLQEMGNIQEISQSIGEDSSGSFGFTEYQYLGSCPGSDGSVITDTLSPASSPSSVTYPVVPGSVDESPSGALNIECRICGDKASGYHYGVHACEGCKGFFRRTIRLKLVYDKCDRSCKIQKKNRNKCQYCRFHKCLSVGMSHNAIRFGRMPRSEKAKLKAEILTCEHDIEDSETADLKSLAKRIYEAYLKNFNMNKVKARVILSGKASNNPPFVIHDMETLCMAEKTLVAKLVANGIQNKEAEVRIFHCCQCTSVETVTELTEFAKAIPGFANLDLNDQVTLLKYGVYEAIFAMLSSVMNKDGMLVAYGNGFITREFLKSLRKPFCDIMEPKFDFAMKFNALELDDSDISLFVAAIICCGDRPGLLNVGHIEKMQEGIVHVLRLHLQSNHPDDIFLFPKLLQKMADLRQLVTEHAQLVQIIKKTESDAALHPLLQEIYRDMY

[2] = biological target: T2, Peroxisome proliferator-activated receptor delta (Homo sapiens, UniProt Q03181); experiment: In vitro transcriptional activation of hPPAR delta; type: functional
T2 sequence (Q03181 whole entry): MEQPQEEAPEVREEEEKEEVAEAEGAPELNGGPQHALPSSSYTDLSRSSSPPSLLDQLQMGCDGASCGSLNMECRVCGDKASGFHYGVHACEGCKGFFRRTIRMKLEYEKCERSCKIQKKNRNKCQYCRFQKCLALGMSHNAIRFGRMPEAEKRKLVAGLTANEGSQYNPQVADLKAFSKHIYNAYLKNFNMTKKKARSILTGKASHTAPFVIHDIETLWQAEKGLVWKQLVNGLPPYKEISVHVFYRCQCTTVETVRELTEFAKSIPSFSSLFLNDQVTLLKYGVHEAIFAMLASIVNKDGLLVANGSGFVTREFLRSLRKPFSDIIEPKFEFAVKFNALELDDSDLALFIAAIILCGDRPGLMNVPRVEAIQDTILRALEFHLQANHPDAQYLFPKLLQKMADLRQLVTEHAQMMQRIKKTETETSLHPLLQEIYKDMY

[3] = biological target: T3, Peroxisome proliferator-activated receptor gamma (Homo sapiens, UniProt P37231)
T3 sequence (P37231 whole entry): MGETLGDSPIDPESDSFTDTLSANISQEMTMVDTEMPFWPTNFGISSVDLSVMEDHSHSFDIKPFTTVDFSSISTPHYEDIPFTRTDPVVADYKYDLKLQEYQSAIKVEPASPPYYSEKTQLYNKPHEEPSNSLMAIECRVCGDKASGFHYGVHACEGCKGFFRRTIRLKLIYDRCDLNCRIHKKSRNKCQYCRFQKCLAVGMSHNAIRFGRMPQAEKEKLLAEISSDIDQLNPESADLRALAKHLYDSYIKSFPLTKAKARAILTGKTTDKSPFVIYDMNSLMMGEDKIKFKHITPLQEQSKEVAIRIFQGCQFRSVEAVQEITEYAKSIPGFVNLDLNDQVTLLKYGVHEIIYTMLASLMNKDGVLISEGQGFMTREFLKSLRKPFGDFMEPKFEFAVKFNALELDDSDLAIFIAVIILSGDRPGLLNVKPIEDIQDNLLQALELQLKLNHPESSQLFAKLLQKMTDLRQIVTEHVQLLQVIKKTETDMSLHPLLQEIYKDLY
Description: In vitro transactivation using receptor transactivation assay against hPPAR gamma

EC50 [2]	Structure (SMILES)	EC50 [1]	EC50 [3]
2410 nM	CCCCC[C@H](O)/C=C/[C@@H]1[C@H]2C/C(=C\CCCC(=O)O)C[C@H]2C[C@H]1O [CARBACYCLIN]	340 nM	–
–	CCOC(Cc1ccc(OCCC=C2c3ccccc3CCc3ccccc32)cc1)C(=O)O (stereo not given)	–	16700 nM
–	CCO[C@@H](Cc1ccc(OCCn2c3ccc(Br)cc3c3cc(Br)ccc32)cc1)C(=O)O	220 nM	44 nM
